The source of these data is patent US4348404A, “Antiinflammatory 4,5-diaryl-α-polyfluoroalkyl-1H-imidazole-2-methanamines” (E. I. Du Pont de Nemours and Company, priority 1981, dated 1982).

SMILES strings stand for the structures. Read-outs that look alike come from different tables or passages of the source.

One may read the ED50 as the dose at which the effect has come halfway, by size or by number of responders.

The assay concerns adjuvant-induced arthritis in rats. The experiment in a line: Established Adjuvant-Induced Arthritis in Rats. The note with it: for ED50: read-out: Adjuvant Arthritis ED50; for percent paw volume reduction at the indicated dose: oral gavage once daily for 7 days. Type of assay: in vivo, Lewis (Wistar) male rats.
The mark [1] stands for this setting: rat, oral gavage once daily for 7 days (days 14-20), decrease from control paw volume, uninjected left hind paw, day 21, estimated from dose-response regression lines by inspection.

Turning to `Cn1c(C(N)(C(F)(F)F)C(F)(F)F)nc(-c2ccc(F)cc2)c1-c1ccc(F)cc1` [Example 6, 4,5-bis(4-fluorophenyl)-1-methyl-α,α-di(trifluoromethyl)-1H-imidazole-2-methanamine], the ED50 under setting [1] was 3.4 mg/kg. Turning to `NC(c1nc(-c2ccc(Cl)cc2)c(-c2ccc(Cl)cc2)[nH]1)(C(F)(F)F)C(F)(F)F` [Example 8], the ED50 (Rattus norvegicus, po) is 7 mg/kg. With `COc1ccc(-c2nc(C(N)(C(F)(F)F)C(F)(F)F)n(C)c2-c2ccc(OC)cc2)cc1` [Example 5], the “percent paw volume reduction at the indicated dose” value (rat, @ 50 mg/kg) is on record as -27%. As for `COc1ccc(-c2nc(C(N)(C(F)(F)F)C(F)(F)F)[nH]c2-c2ccc(OC)cc2)cc1` [Example 1, 4,5-Bis(4-methoxyphenyl)-α,α-di(trifluoromethyl)-1H-imidazole-2-methanamine], under setting [1], the ED50 is 2 mg/kg.

For `CNC(c1nc(-c2ccc(F)cc2)c(-c2ccc(F)cc2)n1C)(C(F)(F)F)C(F)(F)F` [Example 3, 4,5-Bis-(4-fluorophenyl)-N,1-dimethyl-α,α-di(trifluoromethyl)-1H-imidazole-2-methanamine], under “rat, @ 25 mg/kg”, the “percent paw volume reduction at the indicated dose” value was -41%.

Turning to `NC(c1nc(-c2ccc(F)cc2)c(-c2ccc(F)cc2)[nH]1)C(F)(F)F` (stereo not drawn) [Example 2, 4,5-Bis(4-fluorophenyl)-α-trifluoromethyl-1H-imidazole-2-methanamine], under setting [1], the median effective dose (ED50) was 19 mg/kg. `NC(c1nc(-c2ccccc2)c(-c2ccccc2)[nH]1)(C(F)(F)F)C(F)(F)F` [Example 9]: under setting [1], the 50% effective dose (ED50) is 8 mg/kg. Regarding `Cc1ccc(-c2nc(C(N)(C(F)(F)F)C(F)(F)F)[nH]c2-c2ccc(C)cc2)cc1` [Example 7], the ED50 under setting [1] was 5.4 mg/kg. For the molecule `NC(c1nc(-c2ccc(F)cc2)c(-c2ccc(F)cc2)[nH]1)(C(F)(F)F)C(F)(F)F` [Example 4, 4,5-bis(4-fluorophenyl)-α,α-di(trifluoromethyl)-1H-imidazole-2-methanamine], under setting [1], the 50% effective dose (ED50) is 1.7 mg/kg.
